{"source": "paper PMC6625456", "about": "(Molecular Medicine Reports, 2019)", "key": {"AChE": {"test_system": "AChE", "details": "read-out: IC50, inhibition of AChE; in vitro; cited from earlier work"}, "[1]": {"test": "cumulative excretion in bile, urine and feces", "assay_type": "in vivo, Sprague-Dawley (SD) rats", "details": "oral 100 mg/kg"}, "CYP2D6": {"biological_target": "CYP2D6 (Homo sapiens, UniProt P10635)", "sequence (P10635 whole entry)": "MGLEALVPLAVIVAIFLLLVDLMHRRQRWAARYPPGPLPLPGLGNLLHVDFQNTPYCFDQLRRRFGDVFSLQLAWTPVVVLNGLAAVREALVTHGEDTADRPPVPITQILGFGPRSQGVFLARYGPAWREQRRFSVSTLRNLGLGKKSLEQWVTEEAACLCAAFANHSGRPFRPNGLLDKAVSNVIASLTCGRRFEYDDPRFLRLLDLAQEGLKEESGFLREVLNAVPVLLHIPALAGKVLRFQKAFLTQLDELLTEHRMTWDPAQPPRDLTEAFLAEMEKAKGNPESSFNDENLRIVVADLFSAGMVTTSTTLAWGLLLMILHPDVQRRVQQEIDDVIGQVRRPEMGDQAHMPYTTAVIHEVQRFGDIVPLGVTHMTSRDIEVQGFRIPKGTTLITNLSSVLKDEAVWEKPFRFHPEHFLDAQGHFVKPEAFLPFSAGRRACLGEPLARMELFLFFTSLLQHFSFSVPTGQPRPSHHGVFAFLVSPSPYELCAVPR", "test": "metabolism in recombinant human CYP450 enzymes", "assay_type": "in vitro ADME", "details": "DL0410 10 µM; recombinant CYP1A2, CYP2C9, CYP2D6, CYP3A4; 37°C, 2 h"}, "[2]": {"test": "concentration in entorhinal cortex and hippocampus after oral administration", "assay_type": "in vivo, Sprague-Dawley (SD) rats"}, "APP/PS1 transgenic mice": {"test_system": "APP/PS1 transgenic mice", "details": "cited from earlier work"}, "[3]": {"test_system": "Aβ1-42-induced amnesia in mice", "details": "cited from earlier work"}, "[4]": {"test": "plasma pharmacokinetics after oral and intravenous administration", "assay_type": "in vivo, Sprague-Dawley (SD) rats", "details": "both, Sprague-Dawley, rat"}, "BChE": {"test_system": "BChE", "details": "read-out: IC50, inhibition of BChE; in vitro; cited from earlier work"}}, "data": [{"smiles": "Cl.Cl.O=C(CCN1CCCCC1)c1ccc(-c2ccc(C(=O)CCN3CCCCC3)cc2)cc1", "note": "[DL0410, 1,1′-([1,1′-biphenyl]-4,4′-diyl)bis(3-(piperidin-1-yl)propan-1-one) dihydrochloride]", "values": [{"measurement": "IC50", "setting": "AChE", "value": "286 ± 4", "unit": "nM"}, {"measurement": "accumulated excretion in bile", "setting": "[1]; rat bile, for 36 h", "value": "0.010 % of the dose"}, {"measurement": "cumulative fecal excretion", "setting": "[1]; rat feces", "value": 34.71, "unit": "%"}, {"measurement": "cumulative urinary excretion", "setting": "[1]; rat urine, in 72 h", "value": "0.086 % of the dose"}, {"measurement": "CYP450 isoform involved in the reduction reaction", "setting": "CYP2D6", "value": "CYP2D6 was identified to be involved in the reduction of the carbonyl group"}, {"measurement": "Tmax", "setting": "[2]; both, Sprague-Dawley, rat, entorhinal cortex and hippocampus, po, 100 mg/kg", "value": "~6", "unit": "h"}, {"measurement": "Cmax", "setting": "[2]; both, Sprague-Dawley, rat, entorhinal cortex, po, 100 mg/kg", "value": "46.2 ± 13.2", "unit": "ng/mL"}, {"measurement": "Cmax", "setting": "[2]; both, Sprague-Dawley, rat, hippocampus, po, 100 mg/kg", "value": "50.3 ± 6.92", "unit": "ng/mL"}, {"measurement": "crossing of the blood-brain barrier", "setting": "[2]; rats, oral 100 mg/kg, detectable level in EC and HIP", "value": "able to cross the blood-brain barrier"}, {"measurement": "improvement of memory deficits", "setting": "APP/PS1 transgenic mice", "value": "improve memory deficits in APP/PS1 transgenic mice"}, {"measurement": "improvement of Aβ1-42-induced amnesia", "setting": "[3]", "value": "improve memory deficits"}, {"measurement": "Tmax", "setting": "[4]", "value": "~0.75", "unit": "h"}, {"measurement": "half-life", "setting": "[4]", "value": "6.05 to 8.23", "unit": "h"}, {"measurement": "Cmax", "setting": "[4]; 25 mg/kg", "value": "21.5 ± 3.46", "unit": "ng/mL"}, {"measurement": "AUC(0-t)", "setting": "[4]; 50 mg/kg", "value": "239 ± 63", "unit": "ng·h/mL"}, {"measurement": "Cmax", "setting": "[4]; 50 mg/kg", "value": "56.1 ± 4.01", "unit": "ng/mL"}, {"measurement": "Cmax", "setting": "[4]; 100 mg/kg", "value": "196 ± 46.8", "unit": "ng/mL"}, {"measurement": "IC50", "setting": "BChE", "value": "3960 ± 99", "unit": "nM"}]}]}
